Starred links: 1 amine or outer side, 2 acyl side, 3 side chain; linkers in the order of their positions; H or OH if unused. Non-standard residues stand in square brackets, D forms with d. Residues, ends and D or L forms follow the SMILES beside them. Groups on a side chain read outwards from the residue. *: point of attachment. γGlu = O=C(O)[C@H](CCC(=O)[*:2])N[*:1]; Stearoyl = CCCCCCCCCCCCCCCCCC(=O)*; Palmitoyl = CCCCCCCCCCCCCCCC(=O)*; αMeF = C[C@](N)(Cc1ccccc1)C(=O)O; PEG2 = NCCOCCOCCC(=O)O; Aib = CC(C)(N)C(=O)O
Key:
[1] = target: human glucagon receptor (hGCGR) (Homo sapiens, UniProt P47871); experiment: cAMP production (HTRF) in CHO cells expressing hGCGR; format: cell-based; parameters: expressed in transfected cells; conditions: Table 6, peptides modified at position 17; cAMP in CHO hGCGR cells; geometric mean; read-out: hGluc-R EC50
Chain of human glucagon receptor (hGCGR) (P47871 26-477): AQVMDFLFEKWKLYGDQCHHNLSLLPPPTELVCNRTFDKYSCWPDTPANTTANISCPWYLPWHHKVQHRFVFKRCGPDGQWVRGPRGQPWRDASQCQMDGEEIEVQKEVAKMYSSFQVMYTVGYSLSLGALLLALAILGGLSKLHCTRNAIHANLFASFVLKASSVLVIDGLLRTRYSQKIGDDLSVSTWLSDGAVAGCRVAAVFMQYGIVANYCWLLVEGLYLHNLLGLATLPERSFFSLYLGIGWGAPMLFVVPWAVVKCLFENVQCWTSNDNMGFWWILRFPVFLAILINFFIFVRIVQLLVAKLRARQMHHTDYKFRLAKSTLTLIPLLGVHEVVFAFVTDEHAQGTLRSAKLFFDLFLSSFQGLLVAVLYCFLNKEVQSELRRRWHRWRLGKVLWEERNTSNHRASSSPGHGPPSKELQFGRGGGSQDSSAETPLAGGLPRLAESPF
Method in brief: (§1)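 Cells were resuspended in assay buffer at batch-optimized density, typically 1×10^5 cells/mL for hGLP-1R and 2×10^5 cells/mL for hGCGR. After 30 min incubation at room temperature with compound, cAMP was measured by two-step HTRF. EC50 values came from 4-parameter logistic fits of % Delta F.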

[2] = target: human GLP-1 receptor (hGLP-1R) (Homo sapiens, UniProt P43220); experiment: cAMP production (HTRF) in CHO cells expressing hGLP-1R; format: cell-based; parameters: expressed in transfected cells; conditions: for % Relative Potency Ratio: Table 6, % GLP-1R activity relative to GLP-1 / % GlucR activity relative to glucagon; for EC50: Table 6, peptides modified at position 17, cAMP in CHO hGLP-1R cells, geometric mean, read-out: hGLP-1R EC50
Chain of human GLP-1 receptor (hGLP-1R) (P43220 24-463): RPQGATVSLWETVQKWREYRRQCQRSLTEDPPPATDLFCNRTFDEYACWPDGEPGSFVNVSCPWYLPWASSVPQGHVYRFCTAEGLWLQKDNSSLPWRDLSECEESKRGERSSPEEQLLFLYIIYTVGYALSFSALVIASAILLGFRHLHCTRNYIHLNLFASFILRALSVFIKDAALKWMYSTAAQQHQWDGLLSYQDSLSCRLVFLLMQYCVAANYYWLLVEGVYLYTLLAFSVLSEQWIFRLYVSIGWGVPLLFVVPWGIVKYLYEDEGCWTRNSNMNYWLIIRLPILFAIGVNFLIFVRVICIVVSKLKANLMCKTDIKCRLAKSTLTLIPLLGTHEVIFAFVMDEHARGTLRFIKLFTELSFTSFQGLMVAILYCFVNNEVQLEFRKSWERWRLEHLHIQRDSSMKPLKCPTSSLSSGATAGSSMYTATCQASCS
Method in brief: as §1

| Compound | EC50 [1] [nM] | % Relative Potency Ratio [2] | EC50 [2] [nM] |
| --- | --- | --- | --- |
| CCCCCCCCCCCCCCCCCC(=O)N[C@@H](CCC(=O)N[C@@H](CCC(=O)NCCOCCOCCC(=O)NCCOCCOCCC(=O)NCCCC[C@H](NC(=O)[C@H](CO)NC(=O)[C@H](CC(=O)O)NC(=O)[C@H](CC(C)C)NC(=O)C(C)(C)NC(=O)[C@H](CCCCN)NC(=O)[C@H](CO)NC(=O)[C@@H](NC(=O)[C@H](CC(=O)O)NC(=O)[C@H](CO)NC(=O)[C@@H](NC(=O)[C@](C)(Cc1ccccc1)NC(=O)[C@H](CO)NC(=O)CNC(=O)[C@H](CCC(N)=O)NC(=O)[C@H](CO)NC(=O)[C@@H](N)Cc1c[nH]cn1)[C@@H](C)O)C(C)C)C(=O)N[C@@H](C)C(=O)N[C@@H](C)C(=O)N[C@@H](CCC(N)=O)C(=O)N[C@@H](CC(=O)O)C(=O)N[C@@](C)(Cc1ccccc1)C(=O)N[C@H](C(=O)N[C@@H](CCC(N)=O)C(=O)NC(C)(C)C(=O)N[C@H](C(=O)N[C@H](C(=O)N[C@@H](CCC(=O)O)C(N)=O)[C@@H](C)CC)[C@@H](C)CC)C(C)C)C(=O)O)C(=O)O [Peptide 98] (H-HSQGS[αMeF]TSDVSK[Aib]LDSK([PEG2-PEG2-γGlu-γGlu-Stearoyl])AAQD[αMeF]VQ[Aib]IIE-NH2; N-terminus assumed) | 0.0541 | 43.8 | 0.00244 |
| CCCCCCCCCCCCCCCCCC(=O)N[C@@H](CCC(=O)N[C@@H](CCC(=O)NCCOCCOCCC(=O)NCCOCCOCCC(=O)NCCCC[C@H](NC(=O)[C@H](CO)NC(=O)[C@H](CC(=O)O)NC(=O)[C@H](CC(C)C)NC(=O)C(C)(C)NC(=O)[C@H](CCCCN)NC(=O)[C@H](CO)NC(=O)[C@@H](NC(=O)[C@H](CC(=O)O)NC(=O)[C@H](CO)NC(=O)[C@@H](NC(=O)[C@](C)(Cc1ccccc1)NC(=O)[C@H](CO)NC(=O)CNC(=O)[C@H](CCC(N)=O)NC(=O)C(C)(C)NC(=O)[C@@H](N)Cc1c[nH]cn1)[C@@H](C)O)C(C)C)C(=O)N[C@@H](C)C(=O)N[C@@H](C)C(=O)N[C@@H](CCC(N)=O)C(=O)N[C@@H](CC(=O)O)C(=O)N[C@@](C)(Cc1ccccc1)C(=O)N[C@H](C(=O)N[C@@H](CCC(N)=O)C(=O)NC(C)(C)C(=O)N[C@H](C(=O)N[C@@H](C)C(=O)N[C@@H](CC(N)=O)C(N)=O)[C@@H](C)CC)C(C)C)C(=O)O)C(=O)O [Peptide 100] (H-H[Aib]QGS[αMeF]TSDVSK[Aib]LDSK([PEG2-PEG2-γGlu-γGlu-Stearoyl])AAQD[αMeF]VQ[Aib]IAN-NH2; N-terminus assumed) | 0.0405 | 310.3 |  |
| CCCCCCCCCCCCCCCCCC(=O)N[C@@H](CCC(=O)N[C@@H](CCC(=O)NCCOCCOCCC(=O)NCCOCCOCCC(=O)NCCCC[C@H](NC(=O)[C@H](CO)NC(=O)[C@H](CC(=O)O)NC(=O)[C@H](CC(C)C)NC(=O)C(C)(C)NC(=O)[C@H](CCCCN)NC(=O)[C@H](CO)NC(=O)[C@@H](NC(=O)[C@H](CC(=O)O)NC(=O)[C@H](CO)NC(=O)[C@@H](NC(=O)[C@](C)(Cc1ccccc1)NC(=O)[C@H](CO)NC(=O)CNC(=O)[C@H](CCC(N)=O)NC(=O)C(C)(C)NC(=O)[C@@H](N)Cc1c[nH]cn1)[C@@H](C)O)C(C)C)C(=O)N[C@@H](C)C(=O)N[C@@H](C)C(=O)N[C@@H](CCC(N)=O)C(=O)N[C@@H](CC(=O)O)C(=O)N[C@@](C)(Cc1ccccc1)C(=O)N[C@H](C(=O)N[C@@H](CCC(N)=O)C(=O)N[C@@H](Cc1c[nH]c2ccccc12)C(=O)N[C@H](C(=O)N[C@@H](C)C(=O)N[C@@H](CC(N)=O)C(N)=O)[C@@H](C)CC)C(C)C)C(=O)O)C(=O)O [Peptide 103] (H-H[Aib]QGS[αMeF]TSDVSK[Aib]LDSK([PEG2-PEG2-γGlu-γGlu-Stearoyl])AAQD[αMeF]VQWIAN-NH2; N-terminus assumed) | 0.0594 | 220.8 |  |
| CCCCCCCCCCCCCCCCCC(=O)N[C@@H](CCC(=O)N[C@@H](CCC(=O)NCCOCCOCCC(=O)NCCOCCOCCC(=O)NCCCC[C@H](NC(=O)[C@H](CO)NC(=O)[C@H](CC(=O)O)NC(=O)[C@H](CC(C)C)NC(=O)C(C)(C)NC(=O)[C@H](CCCCN)NC(=O)[C@H](CO)NC(=O)[C@@H](NC(=O)[C@H](CC(=O)O)NC(=O)[C@H](CO)NC(=O)[C@@H](NC(=O)[C@](C)(Cc1ccccc1)NC(=O)[C@H](CO)NC(=O)CNC(=O)[C@H](CCC(N)=O)NC(=O)[C@@H](NC(=O)[C@@H](N)Cc1c[nH]cn1)[C@@H](C)O)[C@@H](C)O)C(C)C)C(=O)N[C@@H](C)C(=O)N[C@@H](C)C(=O)N[C@@H](CCC(N)=O)C(=O)N[C@@H](CC(=O)O)C(=O)N[C@@](C)(Cc1ccccc1)C(=O)N[C@H](C(=O)N[C@@H](CCC(N)=O)C(=O)NC(C)(C)C(=O)N[C@H](C(=O)N[C@@H](C)C(=O)N[C@@H](CC(N)=O)C(N)=O)[C@@H](C)CC)C(C)C)C(=O)O)C(=O)O [Peptide 104] (H-HTQGS[αMeF]TSDVSK[Aib]LDSK([PEG2-PEG2-γGlu-γGlu-Stearoyl])AAQD[αMeF]VQ[Aib]IAN-NH2; N-terminus assumed) | 0.0456 | 0.4 | 0.247 |
| CCCCCCCCCCCCCCCC(=O)N[C@@H](CCC(=O)N[C@@H](CCC(=O)NCCOCCOCCC(=O)NCCOCCOCCC(=O)NCCCC[C@H](NC(=O)[C@H](CO)NC(=O)[C@H](CC(=O)O)NC(=O)[C@H](CC(C)C)NC(=O)C(C)(C)NC(=O)[C@H](CCCCN)NC(=O)[C@H](CO)NC(=O)[C@@H](NC(=O)[C@H](CC(=O)O)NC(=O)[C@H](CO)NC(=O)[C@@H](NC(=O)[C@](C)(Cc1ccccc1)NC(=O)[C@H](CO)NC(=O)CNC(=O)[C@H](CCC(N)=O)NC(=O)[C@H](CO)NC(=O)[C@@H](N)Cc1c[nH]cn1)[C@@H](C)O)C(C)C)C(=O)N[C@@H](CCC(N)=O)C(=O)N[C@@H](C)C(=O)N[C@@H](CCC(N)=O)C(=O)N[C@@H](CC(=O)O)C(=O)N[C@@](C)(Cc1ccccc1)C(=O)N[C@H](C(=O)N[C@@H](CCC(N)=O)C(=O)NC(C)(C)C(=O)N[C@H](C(=O)N[C@@H](C)C(=O)N[C@@H](CC(N)=O)C(N)=O)[C@@H](C)CC)C(C)C)C(=O)O)C(=O)O [Peptide 105] (H-HSQGS[αMeF]TSDVSK[Aib]LDSK([PEG2-PEG2-γGlu-γGlu-Palmitoyl])QAQD[αMeF]VQ[Aib]IAN-NH2) | 0.121 | 3.7 | 0.0648 |
| CCCCCCCCCCCCCCCC(=O)N[C@@H](CCC(=O)N[C@@H](CCC(=O)NCCOCCOCCC(=O)NCCOCCOCCC(=O)NCCCC[C@H](NC(=O)[C@H](CO)NC(=O)[C@H](CC(=O)O)NC(=O)[C@H](CC(C)C)NC(=O)C(C)(C)NC(=O)[C@H](CCCCN)NC(=O)[C@H](CO)NC(=O)[C@@H](NC(=O)[C@H](CC(=O)O)NC(=O)[C@H](CO)NC(=O)[C@@H](NC(=O)[C@](C)(Cc1ccccc1)NC(=O)[C@H](CO)NC(=O)CNC(=O)[C@H](CCC(N)=O)NC(=O)[C@H](CO)NC(=O)[C@@H](N)Cc1c[nH]cn1)[C@@H](C)O)C(C)C)C(=O)N[C@@H](C)C(=O)N[C@@H](C)C(=O)N[C@@H](CCC(N)=O)C(=O)N[C@@H](CC(=O)O)C(=O)N[C@@](C)(Cc1ccccc1)C(=O)N[C@H](C(=O)N[C@@H](CCC(N)=O)C(=O)N[C@@H](Cc1c[nH]cn1)C(=O)N[C@H](C(=O)N[C@@H](C)C(=O)N[C@@H](CC(N)=O)C(N)=O)[C@@H](C)CC)C(C)C)C(=O)O)C(=O)O [Peptide 106] (H-HSQGS[αMeF]TSDVSK[Aib]LDSK([PEG2-PEG2-γGlu-γGlu-Palmitoyl])AAQD[αMeF]VQHIAN-NH2) | 0.0368 | 10.7 | 0.00682 |

Now those with a lower EC50 [1], led by results:

| EC50 [1] [nM] | % Relative Potency Ratio [2] | EC50 [2] [nM] | Compound |
| --- | --- | --- | --- |
| 0.0332 | 29.7 | 0.00221 | CCCCCCCCCCCCCCCC(=O)N[C@@H](CCC(=O)N[C@@H](CCC(=O)NCCOCCOCCC(=O)NCCOCCOCCC(=O)NCCCC[C@H](NC(=O)[C@H](CO)NC(=O)[C@H](CC(=O)O)NC(=O)[C@H](CC(C)C)NC(=O)C(C)(C)NC(=O)[C@H](CCCCN)NC(=O)[C@H](CO)NC(=O)[C@@H](NC(=O)[C@H](CC(=O)O)NC(=O)[C@H](CO)NC(=O)[C@@H](NC(=O)[C@](C)(Cc1ccccc1)NC(=O)[C@H](CO)NC(=O)CNC(=O)[C@H](CCC(N)=O)NC(=O)[C@H](CO)NC(=O)[C@@H](N)Cc1c[nH]cn1)[C@@H](C)O)C(C)C)C(=O)N[C@@H](C)C(=O)N[C@@H](C)C(=O)N[C@@H](CCC(N)=O)C(=O)N[C@@H](CC(=O)O)C(=O)N[C@@](C)(Cc1ccccc1)C(=O)N[C@H](C(=O)N[C@@H](CCC(N)=O)C(=O)NC(C)(C)C(=O)N[C@H](C(=O)N[C@@H](C)C(=O)N[C@@H](CC(N)=O)C(N)=O)[C@@H](C)CC)C(C)C)C(=O)O)C(=O)O [Peptide 99] (H-HSQGS[αMeF]TSDVSK[Aib]LDSK([PEG2-PEG2-γGlu-γGlu-Palmitoyl])AAQD[αMeF]VQ[Aib]IAN-NH2; N-terminus assumed) |
| 0.0125 | 40.6 |  | CCCCCCCCCCCCCCCCCC(=O)N[C@@H](CCC(=O)N[C@@H](CCC(=O)NCCOCCOCCC(=O)NCCOCCOCCC(=O)NCCCC[C@H](NC(=O)[C@H](CO)NC(=O)[C@H](CC(=O)O)NC(=O)[C@H](CC(C)C)NC(=O)C(C)(C)NC(=O)[C@H](CCCCN)NC(=O)[C@H](CO)NC(=O)[C@@H](NC(=O)[C@H](CC(=O)O)NC(=O)[C@H](CO)NC(=O)[C@@H](NC(=O)[C@](C)(Cc1ccccc1)NC(=O)[C@H](CO)NC(=O)CNC(=O)[C@H](CCC(N)=O)NC(=O)[C@H](CO)NC(=O)[C@@H](N)Cc1c[nH]cn1)[C@@H](C)O)C(C)C)C(=O)N[C@@H](C)C(=O)N[C@@H](C)C(=O)N[C@@H](CCC(N)=O)C(=O)N[C@@H](CC(=O)O)C(=O)N[C@@](C)(Cc1ccccc1)C(=O)N[C@H](C(=O)N[C@@H](CCC(N)=O)C(=O)NC(C)(C)C(=O)N[C@@H](CC(C)C)C(=O)N[C@@H](C)C(=O)N[C@@H](CC(N)=O)C(=O)N[C@H](C(N)=O)[C@@H](C)O)C(C)C)C(=O)O)C(=O)O [Peptide 95] (H-HSQGS[αMeF]TSDVSK[Aib]LDSK([PEG2-PEG2-γGlu-γGlu-Stearoyl])AAQD[αMeF]VQ[Aib]LANT-NH2; N-terminus assumed) |
